Test results: US9221868B2, “Uridine di- or tri-phosphate derivatives and uses thereof” (BAR-ILAN UNIVERSITY, priority 2010, dated 2015)
“And” between values parts separate entries of the source, which are not always exact repeats. Equal entries are not always repeated.

Experiments:
[1] = molecular target: T1, human NPP3 (Homo sapiens, UniProt O14638); experiment: Hydrolysis by NPP3 (HPLC); assay type: in vitro ADME; details: 3 h at 37° C., pH 8.5
T1 construct: Center of Research in Rheumatology and Immunology, Laval University (Québec, Canada), provided and not purchased
T1 sequence (O14638 1-875): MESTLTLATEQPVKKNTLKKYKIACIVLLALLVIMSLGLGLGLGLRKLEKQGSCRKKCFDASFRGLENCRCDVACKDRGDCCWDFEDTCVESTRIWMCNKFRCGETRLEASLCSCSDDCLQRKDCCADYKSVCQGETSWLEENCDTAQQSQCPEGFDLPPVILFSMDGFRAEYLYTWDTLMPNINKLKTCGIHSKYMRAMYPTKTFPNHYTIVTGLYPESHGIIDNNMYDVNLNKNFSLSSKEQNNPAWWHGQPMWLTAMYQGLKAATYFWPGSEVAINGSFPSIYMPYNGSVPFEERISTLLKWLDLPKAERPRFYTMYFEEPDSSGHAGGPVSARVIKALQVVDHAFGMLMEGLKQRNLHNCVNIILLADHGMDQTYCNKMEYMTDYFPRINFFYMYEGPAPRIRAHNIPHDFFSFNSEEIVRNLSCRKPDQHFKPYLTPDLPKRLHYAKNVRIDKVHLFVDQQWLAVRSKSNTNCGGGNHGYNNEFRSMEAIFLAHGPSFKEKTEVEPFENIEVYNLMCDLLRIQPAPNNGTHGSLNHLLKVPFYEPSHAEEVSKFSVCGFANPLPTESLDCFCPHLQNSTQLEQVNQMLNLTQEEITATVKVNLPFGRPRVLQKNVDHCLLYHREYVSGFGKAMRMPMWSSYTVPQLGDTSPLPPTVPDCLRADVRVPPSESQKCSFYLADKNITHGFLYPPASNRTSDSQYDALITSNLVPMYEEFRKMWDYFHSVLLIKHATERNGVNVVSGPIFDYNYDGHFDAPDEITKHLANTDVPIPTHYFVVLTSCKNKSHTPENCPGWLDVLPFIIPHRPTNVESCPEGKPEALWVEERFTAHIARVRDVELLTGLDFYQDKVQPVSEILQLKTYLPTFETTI
Procedure: (§1) All stability experiments were performed in duplicates.
(§2) In this study, the hydrolysis rate of analogue 13A as compared to UDP and analogue 12, by human NPP1 and NPP3 after incubation at 37° C. in appropriate buffer, was determined.
(§3) 56.15 μg or 57.78 μg of human NPP1 or NPP3 extract, respectively, was added to 0.575 ml the incubation mixture (1 mM […], 200 mM NaCl, 10 mM KCl and 100 mM Tris, pH 8.5) and preincubated at 37° C. for 3 min. Reaction was initiated by the addition of 0.015 ml of 4 mM of UDP, 12 or 13A. The reaction was stopped after incubation of 2 h or 3 h with NPP1 or NPP3, respectively, by transferring a 0.1 ml aliquot from the reaction mixture to 0.350 ml ice-cold 1 M perchloric acid. These samples were centrifuged for 1 min at 10000×g. Supernatants were neutralized with 1 M KOH in 4° C. and centrifuged 1 min at 10000×g. The reaction mixture was filtered and freeze-dried.

[2] = physchem; details: for half-life / Half-life (t1/2) of hydrolysis at pH 1.4: buffer, pH 1.4; for Rate constant of phosphate ester hydrolysis at pH 1.4: pH 1.4, 37° C., pseudo-first-order
Procedure: as §1
The stability of UDP, 11, 12 and 13A in a buffer solution (pH 1.4) was evaluated by ^31P NMR at 37° C. for monitoring possible dephosphorylation products (the signal of the phosphate hydrolysis products is at ˜0 ppm, while that of the borano phosphate analogues is at ˜85 ppm). NMR spectra were recorded on a Bruker DMX-600 spectrometer with a ^31P NMR probe (isotope frequency of 240 MHz) using 85% H3PO4 as an external reference.
Sodium salts of UDP, 11, 12 and 13A were dissolved in 0.45 ml of KCl/HCl buffer (pH 1.4) and D2O (0.05 ml) was added. The final pH was adjusted to pH 1.4. pH measurements were performed with an Metrohm pH electrode and a Metrohm 827 meter. Spectra were recorded at 15 min, 1 h, or 24 h time intervals at 37° C. For experiments that were several days long, the solution was kept in an oil bath at 37° C. and spectra were recorded at ca. 24 h time intervals. The phosphate ester hydrolysis rate was determined by measuring the change of the integration of one of the phosphates signals of the starting material with time.

[3] = molecular target: T2, human NPP1 (Homo sapiens, UniProt P22413); experiment: Hydrolysis by NPP1 (HPLC); assay type: in vitro ADME; details: 2 h at 37° C., pH 8.5
T2 construct: Center of Research in Rheumatology and Immunology, Laval University (Québec, Canada), provided and not purchased
T2 sequence (P22413 1-925): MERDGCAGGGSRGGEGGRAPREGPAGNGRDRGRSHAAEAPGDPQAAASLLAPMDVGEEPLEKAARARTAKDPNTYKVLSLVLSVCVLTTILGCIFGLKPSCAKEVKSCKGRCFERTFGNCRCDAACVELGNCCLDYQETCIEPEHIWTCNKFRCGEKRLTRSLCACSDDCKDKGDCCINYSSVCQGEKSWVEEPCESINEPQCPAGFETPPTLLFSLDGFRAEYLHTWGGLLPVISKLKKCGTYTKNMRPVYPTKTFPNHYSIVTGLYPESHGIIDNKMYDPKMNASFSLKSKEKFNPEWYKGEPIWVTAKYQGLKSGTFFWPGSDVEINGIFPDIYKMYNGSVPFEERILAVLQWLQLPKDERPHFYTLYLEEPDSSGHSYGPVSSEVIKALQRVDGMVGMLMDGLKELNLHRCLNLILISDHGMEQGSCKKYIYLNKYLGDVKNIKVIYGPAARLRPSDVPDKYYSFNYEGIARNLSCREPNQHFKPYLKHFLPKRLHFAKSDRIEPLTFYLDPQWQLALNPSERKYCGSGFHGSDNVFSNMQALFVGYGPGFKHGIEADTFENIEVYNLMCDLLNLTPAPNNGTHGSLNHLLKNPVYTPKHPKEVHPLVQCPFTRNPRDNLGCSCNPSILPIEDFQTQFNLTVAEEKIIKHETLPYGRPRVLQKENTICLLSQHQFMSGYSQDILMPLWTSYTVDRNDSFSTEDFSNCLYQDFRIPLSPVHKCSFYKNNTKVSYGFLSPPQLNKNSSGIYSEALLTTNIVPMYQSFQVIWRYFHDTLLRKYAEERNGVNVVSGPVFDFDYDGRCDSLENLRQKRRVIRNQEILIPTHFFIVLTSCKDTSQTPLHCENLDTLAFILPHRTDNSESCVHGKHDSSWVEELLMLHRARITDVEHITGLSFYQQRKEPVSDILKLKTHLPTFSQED
Procedure: as §1, §2, §3

[4] = Stability in human blood serum (HPLC); details: for half-life at 0.14 mg/ml: human, human blood serum diluted in RPMI-1640
Procedure: Human blood serum was obtained from a blood bank (Tel-Hashomer Hospital, Israel). All stability experiments were performed in duplicates.
The assay mixture containing 0.1 mg each analogue in deionized water (4.5 μl), human blood serum (180 μl) and RPMI-1640 medium (540 μl) (Eliahu et al., 2010a) was incubated at 37° C. for 0-24 h. At 0.5-12 h intervals, each sample was heated to 80° C. for 30 min, treated with CM Sephadex (1-2 mg), shaken for 2 h and centrifuged for 6 min (12000 rpm), and the aqueous layer was collected and extracted with chloroform (2×500 μl). The aqueous layer was freeze-dried and then dissolved in deionized water (100 μl). Samples were loaded onto an activated Starta X-AW weak anion exchange cartridge, washed with H2O (1 ml) and eluted with MeOH:H2O (1:1, 1 ml) followed by NH4OH:MeOH:H2O (2:25:73, 1 ml), and then freeze-dried. The resulting residue was analyzed by HPLC on a Gemini analytical column (5μ C-18 557 110 A; 150 mm×4.60 mm), using gradient elution with solvent system I (for UDP and 12—A:B 96:4 over 10 min) or II (for uridine-5′-O-(α-borano diphosphate) and 13A—A:B 97.5:2.5 over 10 min) at a flow rate of 1 ml/min. […] The percentage of compound degradation was calculated vs. control, to take into consideration the degradation of the compounds due to the work up following the enzymatic reaction. Therefore, each of the samples was compared to a control which was put through the same workup, but to which no serum was added. The percentage of degradation was calculated from the area under the curve of the nucleoside monophosphate peak, after subtraction of the control, which is the amount of the nucleoside monophosphate peak formed due to chemical hydrolysis.

SMILES	Hydrolysis percentage by NPP3 [1] [%]	half-life [2] [h]	Hydrolysis percentage by NPP1 [3]	half-life at 0.14 mg/ml [4] [h]	Half-life (t1/2) of hydrolysis at pH 1.4 [2] [days]	Rate constant of phosphate ester hydrolysis at pH 1.4 [2]	Half-life in human blood serum ([4]; human blood serum and RPMI-1640, 37° C.) [h]
[BH3-][P+](O)(OCC1OC(n2cc(OC)c(=O)[nH]c2=O)C(O)C1O)OP(=O)(O)O (single isomer, unassigned) [Analogue 13A, 5-methoxyuridine-5′-O-(α-boranodiphosphate)]	28	16.9	15%	17			
COc1cn([C@@H]2O[C@H](COP(=O)(O)OP(=O)(O)O)[C@@H](O)[C@H]2O)c(=O)[nH]c1=O [Analogue 12, 5-methoxyuridine diphosphate]	36	~312	49% and 51%	11.9	13	6.25×10^−7 s^−1	
O=c1ccn([C@@H]2O[C@H](COP(=O)(O)OP(=O)(O)O)[C@@H](O)[C@H]2O)c(=O)[nH]1 [UDP, reference compound]	45		50%		~12	6.66×10^−7 s^−1	2.4
